{"source": "patent US20240140991A1", "about": "“ANTIBIOTIC NATURAL PRODUCT ANALOGUES” (THE QUEEN'S UNIVERSITY OF BELFAST, priority 2021, published 2024)", "note": "Starred links: 1 amine or outer side, 2 acyl side, 3 side chain; linkers in the order of their positions; H or OH if unused. Positions of bridges follow the written chain, without caps; N, C: chain ends. Non-standard residues stand in square brackets, D forms with d. Residues, ends and D or L forms follow the SMILES beside them. ξ: configuration not given here. *: point of attachment. X1 = C[C@@H](N=[N+]=[N-])[C@H](N[*:1])C(=O)[*:2]; Octanoyl(7-Me) = CC(C)CCCCCC(=O)*; Hexanoyl(4ξ-Me) = CCC(C)CCC(=O)*; dOrn = NCCC[C@@H](N)C(=O)O; Orn = NCCC[C@H](N)C(=O)O; Dap = NC[C@H](N)C(=O)O; Alloc = C=CCOC(=O)*; OAll = C=CCO*", "data": [{"system": "Escherichia coli ATCC 25922", "type": "cell-based", "settings": "ATCC 25922", "description": "(§1) Minimum inhibitory concentration (MIC) was determined by broth microdilution according to CLSI guidelines. Blood agar plates were inoculated with glycerol stocks of Escherichia coli ATCC 25922, E. coli ATCC 25922 MCR-1, E. coli MCR-1 (clinical isolate from Utrecht Medical Center, NL), E. coli EQAS MCR-2 (clinical isolate from Wageningen University and Research, NL), Kiebsielia pneumoniae ATCC 11228, K. pneumoniae ATCC 13883, K. pneumonia 2048 (clinical isolate from Vrije Universiteit Amsterdam Medical Center, NL), K. pneumonia JS-123 (clinical isolate from Utrecht Medical Center, NL), Acinetobacter baumannii ATCC 17961, A. baumannil ATCC 17978, A. baumannii 2018-006 (clinical isolate from Rijksinstituut voor Volksgezondheid en Milieu, NL), A. baumannii MDR (clinical isolate from Vrije Universiteit Amsterdam Medical Center, NL), Pseudomonas aeruginosa ATCC 27853, P. aeruginosa PAO1, P. aeruginosa NRZ-03961 (Reference strain from Das Nationale Referenzzentrum für gramnegative Krankenhauserreger, DE), P. aeruginosa M-120 (clinical isolate from Leiden University Medical Center, NL) and Staphylococcus aureus USA300 (clinical isolate from Texas Children's Hospitalm, USA). E. coli 25922 MCR1 was grown on LB agar supplemented with kanamycin. The inoculated agar plates were then incubated for 16 hours at 37° C. Individually grown colonies were subsequently used to inoculate 3 mL aliquots of TSB that were then incubated at 37° C. with shaking at 220 rpm. In parallel, the compounds to be assessed were serially diluted with Mueller-Hinton broth (MHB) in polypropylene 96-well plates (50 μL in each well). Once the OD600 of the bacterial suspensions reached 0.5, the bacteria were diluted with MHB (final concentration 2×10^5 CFU mL^−1) and added to the microplates containing the test compounds (50 μL to each well, final volume: 100 μL). The well-plates were sealed with an adhesive membrane and after 16 hours of incubation at 37° C. with shaking at 220 rpm the wells were visually inspected for bacterial growth. MIC values were defined as the lowest concentration of the compound that prevented visible growth of bacteria.", "units": {"Minimum inhibitory concentration (MIC)": "µg/mL"}, "values": [{"compound": "CC[C@H](C)[C@H](NC(=O)[C@@H](NC(=O)[C@H](Cc1c[nH]c2ccccc12)NC(=O)[C@@H](CCCN)NC(=O)CNC(=O)[C@H](CCCN)NC(=O)[C@@H](CCCN)NC(=O)[C@@H](Cc1c[nH]c2ccccc12)NC(=O)[C@@H](Cc1ccc(O)cc1)NC(=O)[C@@H](CO)NC(=O)CCCCCC(C)C)[C@@H](C)N=[N+]=[N-])C(=O)N[C@@H](CC(N)=O)C(=O)NCC(=O)NCC(N)=O", "note": "[MeDap(N3)9-CONH2] ({Octanoyl(7-Me)}-[dS][dY][dW][dOrn][Orn]G[dOrn]W[X1]INGG-NH2)", "Minimum inhibitory concentration (MIC)": 2}, {"compound": "CC[C@H](C)[C@H](NC(=O)[C@@H](NC(=O)[C@H](Cc1c[nH]c2ccccc12)NC(=O)[C@@H](CCCN)NC(=O)CNC(=O)[C@H](CCCN)NC(=O)[C@@H](CCCN)NC(=O)[C@@H](Cc1c[nH]c2ccccc12)NC(=O)[C@@H](Cc1ccc(O)cc1)NC(=O)[C@@H](CO)NC(=O)CCCCCC(C)C)[C@@H](C)O)C(=O)N[C@@H](CC(N)=O)C(N)=O", "note": "[ΔG12-G13, FA-sywoOGoWTIN-CONH2] ({Octanoyl(7-Me)}-[dS][dY][dW][dOrn][Orn]G[dOrn]WTIN-NH2)", "Minimum inhibitory concentration (MIC)": 4}, {"compound": "C=CCOC(=O)CC[C@H](NC(=O)[C@H](Cc1c[nH]c2ccccc12)NC(=O)[C@@H](CCCN)NC(=O)CNC(=O)[C@H](CCCN)NC(=O)[C@@H](CCCN)NC(=O)[C@@H](Cc1c[nH]c2ccccc12)NC(=O)[C@@H](Cc1ccc(O)cc1)NC(=O)[C@@H](CO)NC(=O)CCCCCC(C)C)C(=O)N[C@H](C(=O)N[C@@H](CC(N)=O)C(=O)NCC(=O)NCC(N)=O)[C@@H](C)CC", "note": "[Glu(OAll)9-CONH2] ({Octanoyl(7-Me)}-[dS][dY][dW][dOrn][Orn]G[dOrn]WE(OAll)INGG-NH2)", "Minimum inhibitory concentration (MIC)": 8}, {"compound": "CC[C@H](C)[C@H](NC(=O)[C@@H](NC(=O)[C@H](Cc1c[nH]c2ccccc12)NC(=O)[C@@H](CCCN)NC(=O)CNC(=O)[C@H](CCCN)NC(=O)[C@@H](CCCN)NC(=O)[C@@H](Cc1c[nH]c2ccccc12)NC(=O)[C@@H](Cc1ccc(O)cc1)NC(=O)[C@@H](CO)NC(=O)CCCCCC(C)C)[C@@H](C)O)C(=O)N[C@@H](CC(N)=O)C(=O)N[C@@H](C)C(=O)NCC(N)=O", "note": "[Ala12 (Gly→Ala), FA-sywoOGoWTINAG-CONH2] ({Octanoyl(7-Me)}-[dS][dY][dW][dOrn][Orn]G[dOrn]WTINAG-NH2)", "Minimum inhibitory concentration (MIC)": 4}, {"compound": "CC[C@H](C)[C@H](NC(=O)[C@H](CO)NC(=O)[C@H](Cc1c[nH]c2ccccc12)NC(=O)[C@@H](CCCN)NC(=O)CNC(=O)[C@H](CCCN)NC(=O)[C@@H](CCCN)NC(=O)[C@@H](Cc1c[nH]c2ccccc12)NC(=O)[C@@H](Cc1ccc(O)cc1)NC(=O)[C@@H](CO)NC(=O)CCCCCC(C)C)C(=O)N[C@@H](CC(N)=O)C(=O)NCC(N)=O", "note": "[ΔG13-Ser9-isoC9] ({Octanoyl(7-Me)}-[dS][dY][dW][dOrn][Orn]G[dOrn]WSING-NH2)", "Minimum inhibitory concentration (MIC)": 4}, {"compound": "C=CCOC(=O)NC[C@H](NC(=O)[C@H](Cc1c[nH]c2ccccc12)NC(=O)[C@@H](CCCN)NC(=O)CNC(=O)[C@H](CCCN)NC(=O)[C@@H](CCCN)NC(=O)[C@@H](Cc1c[nH]c2ccccc12)NC(=O)[C@@H](Cc1ccc(O)cc1)NC(=O)[C@@H](CO)NC(=O)CCCCCC(C)C)C(=O)N[C@H](C(=O)N[C@@H](CC(N)=O)C(=O)NCC(=O)NCC(=O)O)[C@@H](C)CC", "note": "[Dap(Alloc)9-COOH] ({Octanoyl(7-Me)}-[dS][dY][dW][dOrn][Orn]G[dOrn]W[Dap](Alloc)INGG-OH)", "Minimum inhibitory concentration (MIC)": 2}, {"compound": "C=CCOC(=O)NC[C@H](NC(=O)[C@H](Cc1c[nH]c2ccccc12)NC(=O)[C@@H](CCCN)NC(=O)CNC(=O)[C@H](CCCN)NC(=O)[C@@H](CCCN)NC(=O)[C@@H](Cc1c[nH]c2ccccc12)NC(=O)[C@@H](Cc1ccc(O)cc1)NC(=O)[C@@H](CO)NC(=O)CCCCCC(C)C)C(=O)N[C@H](C(=O)N[C@@H](CC(N)=O)C(=O)NCC(=O)NCC(N)=O)[C@@H](C)CC", "note": "[Dap(Alloc)9-CONH2] ({Octanoyl(7-Me)}-[dS][dY][dW][dOrn][Orn]G[dOrn]W[Dap](Alloc)INGG-NH2)", "Minimum inhibitory concentration (MIC)": 2}, {"compound": "CC[C@H](C)[C@H](NC(=O)[C@@H](NC(=O)[C@H](Cc1c[nH]c2ccccc12)NC(=O)[C@@H](CCCN)NC(=O)CNC(=O)[C@H](CCCN)NC(=O)[C@@H](CCCN)NC(=O)[C@@H](Cc1c[nH]c2ccccc12)NC(=O)[C@@H](Cc1ccc(O)cc1)NC(=O)[C@@H](CO)NC(=O)CCCCCC(C)C)[C@@H](C)O)C(=O)N[C@@H](C)C(=O)NCC(=O)NCC(N)=O", "note": "[Ala11 (Asn→Ala), FA-sywoOGoWTIAGG-CONH2] ({Octanoyl(7-Me)}-[dS][dY][dW][dOrn][Orn]G[dOrn]WTIAGG-NH2)", "Minimum inhibitory concentration (MIC)": 16}, {"compound": "CCC(C)CCC(=O)N[C@H](CO)C(=O)N[C@H](Cc1ccc(O)cc1)C(=O)N[C@H](Cc1c[nH]c2ccccc12)C(=O)N[C@H](CCCN)C(=O)N[C@@H](CCCN)C(=O)NCC(=O)N[C@H](CCCN)C(=O)N[C@@H](Cc1c[nH]c2ccccc12)C(=O)N[C@@H]1C(=O)N[C@@H]([C@@H](C)CC)C(=O)NCC(=O)N[C@H](CO)C(=O)N[C@H](C)C(=O)O[C@@H]1C", "note": "(stereo partly shown) [Compound R8] ({Hexanoyl(4ξ-Me)}-[dS][dY][dW][dOrn][Orn]G[dOrn]WTIG[dS][dA]; ester 9-C; N-terminus assumed)", "Minimum inhibitory concentration (MIC)": "1 to 2"}, {"compound": "CC[C@H](C)[C@H](NC(=O)[C@@H](NC(=O)[C@H](Cc1c[nH]c2ccccc12)NC(=O)[C@@H](CCCN)NC(=O)CNC(=O)[C@H](CCCN)NC(=O)[C@@H](CCCN)NC(=O)[C@@H](Cc1c[nH]c2ccccc12)NC(=O)[C@@H](Cc1ccc(O)cc1)NC(=O)[C@@H](CO)NC(=O)CCCCCC(C)C)[C@@H](C)O)C(=O)N[C@@H](CC(N)=O)C(=O)NCC(N)=O", "note": "[ΔG13, FA-sywoOGoWTING-CONH2] ({Octanoyl(7-Me)}-[dS][dY][dW][dOrn][Orn]G[dOrn]WTING-NH2)", "Minimum inhibitory concentration (MIC)": 2}, {"compound": "CC[C@H](C)[C@H](NC(=O)[C@@H](NC(=O)[C@H](Cc1c[nH]c2ccccc12)NC(=O)[C@@H](C)NC(=O)CNC(=O)[C@H](CCCN)NC(=O)[C@@H](CCCN)NC(=O)[C@@H](Cc1c[nH]c2ccccc12)NC(=O)[C@@H](Cc1ccc(O)cc1)NC(=O)[C@@H](CO)NC(=O)CCCCCC(C)C)[C@@H](C)O)C(=O)N[C@@H](CC(N)=O)C(=O)NCC(=O)NCC(N)=O", "note": "[Ala7 (D-Orn→D-Ala), FA-sywoOGaWTINGG-CONH2] ({Octanoyl(7-Me)}-[dS][dY][dW][dOrn][Orn]G[dA]WTINGG-NH2)", "Minimum inhibitory concentration (MIC)": ">64"}, {"compound": "CCC(C)CCC(=O)N[C@H](CO)C(=O)N[C@H](Cc1ccc(O)cc1)C(=O)N[C@H](Cc1c[nH]c2ccccc12)C(=O)N[C@H](CCCN)C(=O)N[C@@H](CCCN)C(=O)NCC(=O)N[C@H](CCCN)C(=O)N[C@@H](Cc1c[nH]c2ccccc12)C(=O)N[C@@H]1C(=O)N[C@@H]([C@@H](C)CC)C(=O)NCC(=O)N[C@@H](CO)C(=O)N[C@H](C)C(=O)O[C@@H]1C", "note": "(stereo partly shown) [Compound R7] ({Hexanoyl(4ξ-Me)}-[dS][dY][dW][dOrn][Orn]G[dOrn]WTIGS[dA]; ester 9-C; N-terminus assumed)", "Minimum inhibitory concentration (MIC)": 1}, {"compound": "CC[C@H](C)[C@H](NC(=O)[C@H](CN)NC(=O)[C@H](Cc1c[nH]c2ccccc12)NC(=O)[C@@H](CCCN)NC(=O)CNC(=O)[C@H](CCCN)NC(=O)[C@@H](CCCN)NC(=O)[C@@H](Cc1c[nH]c2ccccc12)NC(=O)[C@@H](Cc1ccc(O)cc1)NC(=O)[C@@H](CO)NC(=O)CCCCCC(C)C)C(=O)N[C@@H](CC(N)=O)C(=O)NCC(=O)NCC(N)=O", "note": "[Dap9-CONH2] ({Octanoyl(7-Me)}-[dS][dY][dW][dOrn][Orn]G[dOrn]W[Dap]INGG-NH2)", "Minimum inhibitory concentration (MIC)": 4}, {"compound": "CC[C@H](C)[C@H](NC(=O)[C@@H](NC(=O)[C@H](Cc1c[nH]c2ccccc12)NC(=O)[C@@H](CCCN)NC(=O)CNC(=O)[C@H](CCCN)NC(=O)[C@@H](CCCN)NC(=O)[C@@H](Cc1c[nH]c2ccccc12)NC(=O)[C@@H](Cc1ccc(O)cc1)NC(=O)[C@@H](CO)NC(=O)CCCCCC(C)C)[C@@H](C)O)C(=O)N[C@@H](CC(N)=O)C(=O)NCC(=O)NCC(=O)O", "note": "[Linear Laterocidine (Thr9-COOH)] ({Octanoyl(7-Me)}-[dS][dY][dW][dOrn][Orn]G[dOrn]WTINGG-OH)", "Minimum inhibitory concentration (MIC)": "4 to 8"}, {"compound": "CC[C@H](C)[C@H](NC(=O)[C@@H](NC(=O)[C@H](Cc1c[nH]c2ccccc12)NC(=O)[C@@H](CCCN)NC(=O)CNC(=O)[C@H](CCCN)NC(=O)[C@@H](CCCN)NC(=O)[C@@H](Cc1c[nH]c2ccccc12)NC(=O)[C@@H](Cc1ccc(O)cc1)NC(=O)[C@@H](CO)NC(=O)CCCCCC(C)C)[C@@H](C)O)C(=O)N[C@@H](CC(N)=O)C(=O)NCC(=O)NCC(N)=O", "note": "[Thr (linear laterocidine)] ({Octanoyl(7-Me)}-[dS][dY][dW][dOrn][Orn]G[dOrn]WTINGG-NH2; N-terminus and C-terminus assumed)", "Minimum inhibitory concentration (MIC)": 2}]}, {"system": "Escherichia coli ATCC 25922", "type": "cell-based", "settings": "in vitro activity quoted in the in vivo section", "description": "as §1", "units": {"MIC values against E. coli ATCC 25922": "µg/mL"}, "values": [{"compound": "polymyxin B [reference compound]", "MIC values against E. coli ATCC 25922": 0.5}]}]}
